Results published in EP2548555A1, “Proton pump inhibitors as immunomodulators” (Fondazione IRCCS Istituto Nazionale dei Tumori, priority 2011, dated 2013).

How the values were obtained:
B16-OVA = assay: Survival with adoptive immunotherapy (activated OTI cells) combined with PPI; assay type: in vivo, mice
[1] = test system: transgenic adenocarcinoma of the mouse prostate (TRAMP); assay: IFN-γ production of prostate-infiltrating tumor-specific T cells after HSCT, DLI and DC-Tag-IV vaccination; assay type: in vivo, mice; conditions: PPI i.p. 3 days after DC-Tag-IV vaccine, killed after 24 h; vs PBS
STAT6 [2] = assay: STAT6 phosphorylation state in circulating monocytes of treated patients; assay type: in vivo, advanced melanoma patients; conditions: with respect to cells obtained prior to PPI administration
Description: (§1) We also tested the effect of PPI in advanced melanoma patients receiving high dose esomeprazole (120mg/day for 3 days) in the context of a clinical trial testing the ability of PPI pretreatment to sensitized patients to chemotherapy (CISPLATIN).

[3] = test system: allogenic HLA-matched melanoma cells; conditions: PPI + chemotherapy (CISPLATIN) vs chemotherapy alone
Description: as §1

MDSC in peripheral blood = assay: Peripheral blood cell frequencies in advanced melanoma patients on high dose esomeprazole; assay type: in vivo; conditions: esomeprazole 120mg/day for 3 days
Description: as §1

B16-OVA melanoma = assay: Flow cytometry of tumor-infiltrating leukocytes after DC-OVA257-264 vaccination; assay type: in vivo, mice; conditions: 7-day-old melanomas, DC-OVA257-264 vaccine, PPI i.p. on day 3 post vaccine, analysed after 24h; vs PBS
B16-OVA cells [4] = assay: Functional avidity of tumor CD8+ T cells in the active immunotherapy model (naïve OTI transfer, DC-OVA257-264 vaccine); assay type: in vivo, mice; conditions: PPI i.p. at day 11, sacrificed 1 day later; vs PBS
[5] = test system: Primary human monocytes from HD PBMC; assay type: cell-based
STAT6 [6] = assay: pSTAT evaluation in primary monocytes, IL13 stimulation; assay type: cell-based, human; conditions: pre-treated 3 hours, in response to IL13 (30 min)
STAT3 [7] = assay: STAT3 phosphorylation state in circulating monocytes of treated patients; assay type: in vivo, advanced melanoma patients; conditions: with respect to cells obtained prior to PPI administration
Description: as §1

[8] = Dosing experiments for tolerated dose; parameters: species or system mice; conditions: mouse, in vivo; dosing experiments ranging from 1.25-600 mg/kg; read-out: highest tolerated dose
STAT1 = assay: pSTAT evaluation in primary monocytes, IFNa stimulation; assay type: cell-based, human; conditions: pre-treated 3 hours, in response to IFNa (30 min)
B16-OVA cells [9] = assay: TIL effector function (intracellular IFNγ) after infusion of activated CFSE-labelled OTI cells; assay type: in vivo, mice
B16 melanoma = assay: Survival of mice bearing B16 melanoma not expressing OVA (OTI control; TBI plus TRP-2-sensitized splenocytes); assay type: in vivo
B16-OVA melanoma cells = assay: Tumor extracellular pH (pHe) by magnetic resonance spectroscopy (MRS); assay type: in vivo, mice; conditions: esomeprazole 12.5 mg/kg i.p.; reached within 60 min; baseline approximately 6.5
STAT3 [10] = assay: pSTAT evaluation in primary monocytes, IL6 stimulation; assay type: cell-based, human; conditions: pre-treated 3 hours, in response to IL6 (30 min)
circulating monocytes = assay: Ex-vivo cytokine secretion by circulating monocytes of treated patients; assay type: in vivo, advanced melanoma patients; conditions: after 3 days of high dose PPI treatment
Description: as §1

Structure (SMILES): COc1ccc2nc([S@@+]([O-])Cc3ncc(C)c(OC)c3C)[nH]c2c1 [esomeprazole]
- animal survival (B16-OVA; 8-day melanoma, combined treatment with PPI (12.5 mg/kg) and OTI cells, relative to PBS alone): doubling in the overall survival rate
- tumor growth inhibition (B16-OVA; PPI administered before OTI adoptive transfer): equal tumor growth inhibition
- population of TIL specifically reacting against the tumor antigen (CD44+IFN-γ+ within CD8+) [1]: markedly increased
- reduction in STAT6 phosphorylation state (STAT6 [2]): 15%
- tumor immunity in peripheral blood [3]: significant increase
- frequency of MDSC in peripheral blood (MDSC in peripheral blood): significantly and rapidly decreases
- total CD14+, CD3+, CD4+, CD19+ cells or granulocytes in peripheral blood (MDSC in peripheral blood): no change
- inflammatory infiltrate of the tumor mass (B16-OVA melanoma): did not substantially modify
- increase in ability of magnetic bead sorted CD8+ T cells to recognize OVA257-264 (B16-OVA cells [4]): by at least one log
- release of cytokines/chemokines such as IL-8, GRO and MCD ([5]; PPI pretreatment, data not shown): did not affect
- cytokine/chemokine secretion ([5]; esomeprazole 100 µg/ml pre-treatment 3 hours, then mel-EXO 100 µg for 24 hours): significantly reduced
- STAT6 phosphorylation (STAT6 [6]): inhibit
- reduction in STAT3 phosphorylation state (STAT3 [7]): 20%
- MTD [8]: 12.5 mg/kg
- STAT1 phosphorylation (STAT1): inhibit
- frequency of CFSE+ OT-1 cells (B16-OVA cells [9]; 12-day-old melanoma, PPI 24h after OTI infusion, sacrificed 1 day later, vs PBS): comparable
- percentage of CD44+CD8+IFNY+ T cells in tumor-derived CFSE+ T cells (B16-OVA cells [9]; 12-day-old melanoma, PPI 24h after OTI infusion, vs PBS): significantly enhanced
- IFNY production by CD8+CD44+ T cells isolated from the spleen, lung and kidney (B16-OVA cells [9]; CFSE+ and CFSE- subsets, PPI- vs PBS-treated groups): did not differ
- IFNY production in CFSE- TILs (B16-OVA cells [9]; endogenous T cells, PPI-treated vs PBS-treated mice): higher IFNY production
- survival of mice with B16 melanomas not expressing OVA (B16 melanoma; OTI cells and PPI treatment): did not impact
- Survival (B16 melanoma; TBI 600 Rad, TRP-2-sensitized splenocytes plus PPI vs single adoptive transfer of splenocytes only): significantly prolonged
- tumor pHe (B16-OVA melanoma cells): 7.0
- STAT3 phosphorylation (STAT3 [10]): inhibit
- ex-vivo secretion of VEGF-A (circulating monocytes; before treatment 120±100): 104±58
- ex-vivo secretion of TGFβ (circulating monocytes; before treatment 1809±900): 1502 ± 755 pg/mL
